biological target: T1, STAT6 protein (Homo sapiens, UniProt P42226); test: Fluorescence polarization (FP) binding assay, STAT6; conditions: FP competition, 5 nM fluorescein-labeled tracer, 200 nM protein, PBS pH7.4; read-out: Binding STAT6
T1 sequence (P42226 1-847): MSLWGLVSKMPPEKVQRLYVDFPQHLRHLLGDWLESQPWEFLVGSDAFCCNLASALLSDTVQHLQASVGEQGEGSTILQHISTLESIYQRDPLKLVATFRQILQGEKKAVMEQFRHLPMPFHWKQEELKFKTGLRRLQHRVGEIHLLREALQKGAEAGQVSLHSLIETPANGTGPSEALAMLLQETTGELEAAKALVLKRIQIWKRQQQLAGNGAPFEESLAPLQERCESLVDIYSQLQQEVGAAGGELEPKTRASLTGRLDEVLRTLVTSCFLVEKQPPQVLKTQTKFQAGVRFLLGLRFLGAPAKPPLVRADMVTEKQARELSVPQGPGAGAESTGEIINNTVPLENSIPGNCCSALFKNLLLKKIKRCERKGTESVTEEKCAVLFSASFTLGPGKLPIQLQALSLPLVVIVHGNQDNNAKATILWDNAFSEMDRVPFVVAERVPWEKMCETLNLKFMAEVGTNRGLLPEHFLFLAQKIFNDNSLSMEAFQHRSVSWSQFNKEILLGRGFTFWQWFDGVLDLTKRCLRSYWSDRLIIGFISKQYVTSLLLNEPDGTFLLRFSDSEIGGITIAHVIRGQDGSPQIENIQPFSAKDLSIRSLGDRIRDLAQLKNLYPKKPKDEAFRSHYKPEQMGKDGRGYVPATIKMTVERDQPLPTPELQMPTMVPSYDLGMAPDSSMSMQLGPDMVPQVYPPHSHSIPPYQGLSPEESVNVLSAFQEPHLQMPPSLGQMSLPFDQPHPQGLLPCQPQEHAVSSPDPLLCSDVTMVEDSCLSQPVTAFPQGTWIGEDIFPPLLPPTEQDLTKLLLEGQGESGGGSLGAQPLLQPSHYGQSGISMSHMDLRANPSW
Protocol: Evaluation of the activity of the inhibitors may be accomplished by fluorescence polarization (FP) experiments. A representative general protocol is the following:
Fluorescence polarization (FP) experiments are performed in black round-bottom plates using the CLARIOstar microplate reader. To each well, fluorescein-labeled tracer and STAT5 or STAT6 protein are added in assay buffer. […] The inhibition constants are determined as the concentration of the STAT5 or STAT6 at which 50% of the ligand is bound.
Fluorescence polarization (FP) experiments were performed in 96-well, black round-bottom plates (Microfluor 2, Fisher Scientific) using the CLARIOstar microplate reader (BMG Labtech). To each well, 5 nM of fluoresceinlabeled tracer and 200 nM of STAT5 and/or STAT6 protein were added to a final volume of 100 μl in the assay buffer (PBS pH7.4+0.01% BGG+0.01% Tween-20, 2 mM DTT). The plate was mixed on a shaker for 15 m and incubated at room temperature for 1 h to reach equilibrium. […] All experimental data were analyzed using Prism 8.0 software (GraphPad Software), and the inhibition constants were determined by nonlinear curve fitting as the concentration of the STAT5 and/or STAT6 at which 50% of the ligand is bound.

`CC(C)(C)[C@H](NC(=O)c1cc2cc(C(F)(F)P(=O)(O)O)ccc2s1)C(=O)N1Cc2ccccc2C[C@H]1C(=O)N1CCOC(c2ccc(F)cc2F)C1` (stereo partly drawn) [Compound 237, ((2-(((2S)-1-((3S)-3-(2-(2,4-difluorophenyl)morpholine-4-carbonyl)-3,4-dihydroisoquinolin-2(1H)-yl)-3,3-dimethyl-1-oxobutan-2-yl)carbamoyl)benzo[b]thiophen-5-yl)difluoromethyl)phosphonic acid] was tested. Which Ki did it give?
The Ki was 100 to 1000 nM.

`CC(C)(C)[C@H](NC(=O)c1cc2cc(C(F)(F)P(=O)(O)O)ccc2s1)C(=O)N1Cc2ccccc2C[C@H]1C(=O)N1CCOC(c2ccc(F)c(F)c2)C1` (stereo partly drawn) [Compound 238, ((2-(((2S)-1-((3S)-3-(2-(3,4-difluorophenyl)morpholine-4-carbonyl)-3,4-dihydroisoquinolin-2(1H)-yl)-3,3-dimethyl-1-oxobutan-2-yl)carbamoyl)benzo[b]thiophen-5-yl)difluoromethyl)phosphonic acid] was tested. Which Ki did it give?
The Ki was 100 to 1000 nM.

With `CC(C)(C)[C@H](NC(=O)c1cc2cc(C(F)(F)P(=O)(O)O)ccc2s1)C(=O)N1Cc2ccccc2C[C@H]1C(=O)N1CCOC(c2ccc(F)c(Cl)c2)C1` (stereo partly drawn) [Compound 239, ((2-(((2S)-1-((3S)-3-(2-(3-chloro-4-fluorophenyl)morpholine-4-carbonyl)-3,4-dihydroisoquinolin-2(1H)-yl)-3,3-dimethyl-1-oxobutan-2-yl)carbamoyl)benzo[b]thiophen-5-yl)difluoromethyl)phosphonic acid] as the compound, how does the Ki read?
The Ki was 1000 to 10000 nM.

Which Ki does the source give for `CC(C)(C)[C@H](NC(=O)c1cc2cc(C(F)(F)P(=O)(O)O)ccc2s1)C(=O)N1Cc2ccccc2C[C@H]1C(=O)N1CCOC(c2ccc(Cl)c(Cl)c2)C1` (stereo partly drawn) [Compound 240, ((2-(((2S)-1-((3S)-3-(2-(3,4-dichlorophenyl)morpholine-4-carbonyl)-3,4-dihydroisoquinolin-2(1H)-yl)-3,3-dimethyl-1-oxobutan-2-yl)carbamoyl)benzo[b]thiophen-5-yl)difluoromethyl)phosphonic acid] here?
Its Ki is 100 to 1000 nM.

For `Cc1cc(C2CN(C(=O)[C@@H]3Cc4ccccc4CN3C(=O)[C@@H](NC(=O)c3cc4cc(C(F)(F)P(=O)(O)O)ccc4s3)C(C)(C)C)CCO2)ccc1F` (stereo partly drawn) [Compound 241, (difluoro(2-(((2S)-1-((3S)-3-(2-(4-fluoro-3-methylphenyl)morpholine-4-carbonyl)-3,4-dihydroisoquinolin-2(1H)-yl)-3,3-dimethyl-1-oxobutan-2-yl)carbamoyl)benzo[b]thiophen-5-yl)methyl)phosphonic acid], which Ki is on record?
Its Ki is 1000 to 10000 nM.

`CC(C)(C)[C@H](NC(=O)c1cc2cc(C(F)(F)P(=O)(O)O)ccc2s1)C(=O)N1Cc2ccccc2C[C@H]1C(=O)N1CCOC(c2cc(Cl)cc(Cl)c2)C1` (stereo partly drawn) [Compound 242, ((2-(((2S)-1-((3S)-3-(2-(3,5-dichlorophenyl)morpholine-4-carbonyl)-3,4-dihydroisoquinolin-2(1H)-yl)-3,3-dimethyl-1-oxobutan-2-yl)carbamoyl)benzo[b]thiophen-5-yl)difluoromethyl)phosphonic acid] was tested. Which Ki did it give?
Its Ki is 100 to 1000 nM.

For `CC(C)(C)[C@H](NC(=O)c1cc2cc(C(F)(F)P(=O)(O)O)ccc2s1)C(=O)N1Cc2ccccc2C[C@H]1C(=O)N1CCOC(c2cc(F)c(Cl)cc2Cl)C1` (stereo partly drawn) [Compound 243, ((2-(((2S)-1-((3S)-3-(2-(2,4-dichloro-5-fluorophenyl)morpholine-4-carbonyl)-3,4-dihydroisoquinolin-2(1H)-yl)-3,3-dimethyl-1-oxobutan-2-yl)carbamoyl)benzo[b]thiophen-5-yl)difluoromethyl)phosphonic acid], which Ki is on record?
Its Ki is 100 to 1000 nM.

Which Ki does the source give for `CC(C)(C)[C@H](NC(=O)c1cc2cc(C(F)(F)P(=O)(O)O)ccc2s1)C(=O)N1Cc2ccccc2C[C@H]1C(=O)N1CCCCC(c2ccccc2)C1` (stereo partly drawn) [Compound 244, ((2-(((2S)-3,3-dimethyl-1-oxo-1-((3S)-3-(3-phenylazepane-1-carbonyl)-3,4-dihydroisoquinolin-2(1H)-yl)butan-2-yl)carbamoyl)benzo[b]thiophen-5-yl)difluoromethyl)phosphonic acid] here?
The Ki was 1000 to 10000 nM.

For `CC(C)(C)[C@H](NC(=O)c1cc2cc(C(F)(F)P(=O)(O)O)ccc2s1)C(=O)N1Cc2ccccc2C[C@H]1C(=O)N1CCCC(c2cccc(F)c2)C1` (stereo partly drawn) [Compound 245, (difluoro(2-(((2S)-1-((3S)-3-(3-(3-fluorophenyl)piperidine-1-carbonyl)-3,4-dihydroisoquinolin-2(1H)-yl)-3,3-dimethyl-1-oxobutan-2-yl)carbamoyl)benzo[b]thiophen-5-yl)methyl)phosphonic acid], which Ki is on record?
Its Ki is 100 to 1000 nM.

`CC(C)(C)[C@H](NC(=O)c1cc2cc(C(F)(F)P(=O)(O)O)ccc2s1)C(=O)N1Cc2ccccc2C[C@H]1C(=O)N1CCCC(c2ccc(Cl)cc2)C1` (stereo partly drawn) [Compound 246, ((2-(((2S)-1-((3S)-3-(3-(4-chlorophenyl)piperidine-1-carbonyl)-3,4-dihydroisoquinolin-2(1H)-yl)-3,3-dimethyl-1-oxobutan-2-yl)carbamoyl)benzo[b]thiophen-5-yl)difluoromethyl)phosphonic acid] was tested. Which Ki did it give?
Its Ki is 100 to 1000 nM.

How did the Ki turn out when `CC(C)(C)[C@H](NC(=O)c1cc2cc(C(F)(F)P(=O)(O)O)ccc2s1)C(=O)N1CCC[C@H]1C(=O)N1CCOC(c2cc(F)cc(F)c2)C1` (stereo partly drawn) [Compound 265, ((2-(((2S)-1-((2S)-2-(2-(3,5-difluorophenyl)morpholine-4-carbonyl)pyrrolidin-1-yl)-3,3-dimethyl-1-oxobutan-2-yl)carbamoyl)benzo[b]thiophen-5-yl)difluoromethyl)phosphonic acid] was run?
The Ki was 100 to 1000 nM.

With `CC(C)(C)[C@H](NC(=O)c1cc2cc(C(F)(F)P(=O)(O)O)ccc2s1)C(=O)N1CCC[C@H]1C(=O)N1CC(C(=O)O)CC(c2ccccc2)C1` (stereo partly drawn) [Compound 266, 1-(((S)-2-(5-(difluoro(phosphono)methyl)benzo [b]thiophene-2-carboxamido)-3,3-dimethylbutanoyl)-L-prolyl)-5-phenylpiperidine-3-carboxylic acid] as the compound, how does the Ki read?
The Ki was 1000 to 10000 nM.

For `O=C(N[C@H](C(=O)N1CCC[C@H]1C(=O)N1CCO[C@H](c2ccccc2)C1)C1CCNCC1)c1cc2cc(C(F)(F)P(=O)(O)O)ccc2s1` [Compound 269, (difluoro(2-(((S)-2-oxo-2-((S)-2-((R)-2-phenylmorpholine-4-carbonyl)pyrrolidin-1-yl)-1-(piperidin-4-yl)ethyl)carbamoyl)benzo[b]thiophen-5-yl)methyl)phosphonic acid], which Ki is on record?
Its Ki is 100 to 1000 nM.

With `O=C(N[C@@H](Cc1ccncc1)C(=O)N1CCC[C@H]1C(=O)N1CCO[C@H](c2ccccc2)C1)c1cc2cc(C(F)(F)P(=O)(O)O)ccc2s1` [Compound 270, (difluoro(2-(((S)-1-oxo-1-((S)-2-((R)-2-phenylmorpholine-4-carbonyl)pyrrolidin-1-yl)-3-(pyridin-4-yl)propan-2-yl)carbamoyl)benzo[b]thiophen-5-yl)methyl)phosphonic acid] as the compound, how does the Ki read?
Its Ki is 100 to 1000 nM.

`O=C(N[C@@H](Cc1cccnc1)C(=O)N1CCC[C@H]1C(=O)N1CCO[C@H](c2ccccc2)C1)c1cc2cc(C(F)(F)P(=O)(O)O)ccc2s1` [Compound 271, (difluoro(2-(((S)-1-oxo-1-((S)-2-((R)-2-phenylmorpholine-4-carbonyl)pyrrolidin-1-yl)-3-(pyridin-3-yl)propan-2-yl)carbamoyl)benzo[b]thiophen-5-yl)methyl)phosphonic acid] was tested. Which Ki did it give?
Its Ki is 100 to 1000 nM.
